From ChEMBL document CHEMBL5226290, “Rational design of SphK inhibitors using crystal structures aided by computer” (Eur J Med Chem, 2021) come the findings set out here.

The pIC50 is −log10 of the IC50, conventionally taken in molar units. A word on the pKi: it is the Ki on a negative log10 scale, so that one unit is a factor of ten.

Assay [1] deals with T1, Sphingosine kinase 1 (Homo sapiens, UniProt Q9NYA1). Description: Inhibition of recombinant GST-tagged SphK1 (unknown origin) (1 to 384 residues) expressed in baculovirus using sphingosine as substrate incubated for 1 hr in presence of ATP by electrophoretic mobility shift assay. In general terms: In EMSA bound probe runs differently from free probe, usually more slowly.
T1 sequence (Q9NYA1 whole entry, the tested form may be a part): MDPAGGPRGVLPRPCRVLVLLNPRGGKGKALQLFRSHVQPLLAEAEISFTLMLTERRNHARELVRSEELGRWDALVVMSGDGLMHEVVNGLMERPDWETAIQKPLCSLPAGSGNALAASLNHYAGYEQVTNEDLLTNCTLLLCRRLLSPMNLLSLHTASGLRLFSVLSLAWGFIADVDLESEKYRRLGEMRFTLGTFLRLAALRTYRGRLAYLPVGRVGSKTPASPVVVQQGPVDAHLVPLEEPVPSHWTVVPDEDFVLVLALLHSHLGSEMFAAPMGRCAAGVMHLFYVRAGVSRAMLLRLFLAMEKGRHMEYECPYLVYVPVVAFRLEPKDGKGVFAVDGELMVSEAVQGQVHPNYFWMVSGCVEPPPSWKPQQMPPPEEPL

Assay [2] concerns the target T2, Sphingosine kinase 2 (Homo sapiens, UniProt Q9NRA0).
T2 sequence (Q9NRA0 whole entry): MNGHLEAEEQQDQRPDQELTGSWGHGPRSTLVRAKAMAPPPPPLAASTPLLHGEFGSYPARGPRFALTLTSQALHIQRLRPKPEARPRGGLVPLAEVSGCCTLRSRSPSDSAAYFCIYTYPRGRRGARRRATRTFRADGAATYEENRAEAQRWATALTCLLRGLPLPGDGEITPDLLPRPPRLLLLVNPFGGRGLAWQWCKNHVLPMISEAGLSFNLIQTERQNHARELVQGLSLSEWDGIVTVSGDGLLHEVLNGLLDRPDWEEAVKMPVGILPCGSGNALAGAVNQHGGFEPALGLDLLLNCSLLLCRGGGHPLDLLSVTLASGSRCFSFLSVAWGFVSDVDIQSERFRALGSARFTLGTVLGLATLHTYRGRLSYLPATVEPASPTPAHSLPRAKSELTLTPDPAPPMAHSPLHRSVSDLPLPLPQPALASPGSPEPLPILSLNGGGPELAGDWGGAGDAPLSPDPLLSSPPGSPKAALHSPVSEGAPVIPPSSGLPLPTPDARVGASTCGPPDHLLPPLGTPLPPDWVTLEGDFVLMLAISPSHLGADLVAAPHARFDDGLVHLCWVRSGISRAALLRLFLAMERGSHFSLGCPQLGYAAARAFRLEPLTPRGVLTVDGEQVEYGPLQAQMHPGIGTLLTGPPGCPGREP
The assay can be described thus: Inhibition of recombinant GST-tagged SphK2 (unknown origin) (1 to 618 residues) expressed in baculovirus using sphingosine as substrate incubated for 1 hr in presence of ATP by electrophoretic mobility shift assay.

The target in assay [3] is T1, Sphingosine kinase 1. The assay can be described thus: Inhibition of SphK1 (unknown origin) using ATP as substrate preincubated for 40 mins followed by substrate addition and measured after 5 mins by spectrophotometric analysis.
Assay [4] concerns the target T2, Sphingosine kinase 2. Description: Inhibition of SphK2 (unknown origin) using ATP as substrate preincubated for 40 mins followed by substrate addition and measured after 5 mins by spectrophotometric analysis.
Assay [5] deals with T1, Sphingosine kinase 1. Description: Inhibition of SphK1 (unknown origin) assessed as inhibition constant.
For assay [6], the target named is T2, Sphingosine kinase 2. The assay can be described thus: Inhibition of SphK2 (unknown origin) assessed as inhibition constant.
The target of assay [7] is Sphingosine kinase 1 (Mus musculus, UniProt Q8CI15). The assay can be described thus: Inhibition of recombinant mouse SphK1 expressed in baculovirus infected Sf9 cells using D-erythro-sphingosine and [gamma-32P]ATP as substrate incubated for 30 mins by liquid scintillation counting analysis.
Sphingosine kinase 1 (Mus musculus, UniProt Q8CI15), sequence (Q8CI15 whole entry): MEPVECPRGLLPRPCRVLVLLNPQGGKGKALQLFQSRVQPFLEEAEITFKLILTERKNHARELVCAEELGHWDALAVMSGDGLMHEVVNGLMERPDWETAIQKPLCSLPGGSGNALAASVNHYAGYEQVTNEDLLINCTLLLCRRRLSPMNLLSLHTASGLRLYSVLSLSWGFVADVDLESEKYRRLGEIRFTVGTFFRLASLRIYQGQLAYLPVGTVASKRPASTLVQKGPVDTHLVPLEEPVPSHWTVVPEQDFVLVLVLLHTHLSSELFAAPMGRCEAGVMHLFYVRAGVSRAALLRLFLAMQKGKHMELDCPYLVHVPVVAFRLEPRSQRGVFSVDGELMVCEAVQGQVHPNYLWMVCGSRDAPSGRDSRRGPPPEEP
Assay [8] deals with T3, Sphingosine kinase 2 (Mus musculus, UniProt Q9JIA7).
T3 sequence (Q9JIA7 whole entry): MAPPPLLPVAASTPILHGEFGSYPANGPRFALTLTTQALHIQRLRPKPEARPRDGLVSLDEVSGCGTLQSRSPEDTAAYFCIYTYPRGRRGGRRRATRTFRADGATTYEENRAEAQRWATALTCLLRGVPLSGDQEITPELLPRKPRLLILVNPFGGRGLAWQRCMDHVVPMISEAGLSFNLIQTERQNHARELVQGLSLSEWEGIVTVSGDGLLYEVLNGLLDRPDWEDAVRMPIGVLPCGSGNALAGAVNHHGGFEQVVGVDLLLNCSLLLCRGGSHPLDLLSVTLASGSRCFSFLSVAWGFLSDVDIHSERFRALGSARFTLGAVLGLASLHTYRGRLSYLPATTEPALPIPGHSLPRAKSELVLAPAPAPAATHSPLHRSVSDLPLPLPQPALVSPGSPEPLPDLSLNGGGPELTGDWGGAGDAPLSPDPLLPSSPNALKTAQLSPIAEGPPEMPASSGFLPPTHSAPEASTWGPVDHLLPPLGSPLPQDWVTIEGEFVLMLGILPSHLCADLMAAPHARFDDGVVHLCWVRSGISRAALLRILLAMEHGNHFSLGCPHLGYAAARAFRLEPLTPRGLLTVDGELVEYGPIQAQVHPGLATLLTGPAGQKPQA
The assay can be described thus: Inhibition of recombinant mouse SphK2 expressed in baculovirus infected Sf9 cells using D-erythro-sphingosine and [gamma-32P]ATP as substrate incubated for 30 mins by liquid scintillation counting analysis.

Assay [9] concerns the target T1, Sphingosine kinase 1. The assay can be described thus: Inhibition of recombinant SphK1 (unknown origin) using NBD-sphingosine as substrate in presence of ATP by fluorescence plate reader analysis.
Assay [10] addresses T2, Sphingosine kinase 2. The assay can be described thus: Inhibition of recombinant SphK2 (unknown origin) using NBD-sphingosine as substrate in presence of ATP by fluorescence plate reader analysis.
In assay [11] the target is T1, Sphingosine kinase 1. The assay can be described thus: Inhibition of SphK1 (unknown origin).
For assay [12], the target named is T2, Sphingosine kinase 2. The assay can be described thus: Inhibition of SphK2 (unknown origin).

pIC50, pKi: −log10 of the molar value.

For the compound `CCCCCCCCCCCCCC[C@@H]1OC[C@@H](N)[C@@H]1O`, the values for the pIC50 at Sphingosine kinase 1 [1] and on Sphingosine kinase 2 [2] were 5.28 and 5.80, respectively.

For `CCCOCCCCCCCCCC[C@@H]1OC[C@@H](N)[C@@H]1O`, the pIC50 at Sphingosine kinase 1 [3] was less than 4.52; against Sphingosine kinase 2 [4], 5.49.

`N[C@H]1CN[C@H](CCCCCCCCCCCOC2CCOCC2)[C@H]1O` showed a pIC50 on Sphingosine kinase 1 [3] of 6.10.

For the compound `CCCCCCCCCCCCC/C=C/C(O)C(CO)NC(=N)N` (centres undefined), the pKi on Sphingosine kinase 1 [5] was 7.40; on Sphingosine kinase 2 [6], 6.52.

Take `CCCCCCCCOc1ccc2cc(-c3noc(C4[C@@H](O)CCN4C(=N)N)n3)ccc2c1` (single isomer, unassigned): the values for the pKi on Sphingosine kinase 1 [7] and on Sphingosine kinase 2 [8] were 4.70 and 6.00, respectively.

`Brc1cc2c(c3ccccc13)N1OC(C2)CC1CCc1ccccc1` (centres undefined): the pIC50 at Sphingosine kinase 1 [9] was less than 3.19; at Sphingosine kinase 2 [10], 4.15.

As to `CCCCCCCCCCCCCC[C@@H]1OC[C@H](N)[C@@H]1O`, the pIC50 at Sphingosine kinase 1 [11] was 5.34; at Sphingosine kinase 2 [12], 5.18.

Turning to `CCCCCCCCCCCCC/C=C/[C@H](O)[C@@H](CO)N(C)C`, the pKi on Sphingosine kinase 2 [6] was 4.92.

On to `CCCCCCCCCCCCCC[C@H]1OC[C@H](N)[C@@H]1O` [2-EPI JASPINE B], for which the pIC50 against Sphingosine kinase 1 [3] is 5.37; against Sphingosine kinase 2 [4] it was 4.61.

Take `COc1ccc2[nH]c(=O)c(/C=C/C(=O)c3ccc(Nc4nccc(-c5ccc6ccccc6c5)n4)cc3)cc2c1`: the pIC50 on Sphingosine kinase 1 [9] was 5.51.

Take `Oc1ccc(Nc2nc(-c3ccc(Cl)cc3)cs2)cc1`: the pKi on Sphingosine kinase 2 [6] was 5.10.

As to `CC(=O)N(C1=C(Cl)C(=O)c2ccccc2C1=O)C1CCCCC1`, on Sphingosine kinase 1 [5], the pKi was 6.52.
